Measured values published in US20150190377A1, “NEURONAL REGENERATION” (The Regents of the University of California, a California …, priority 2014, published 2015).
Changes are numbered by the printed parent chain.

Columns and labels:
[1] = system: optic nerve / retinal ganglion cell axons; assay: optic nerve regeneration after crush injury in C57BL/6 mice; type: in vivo, mouse; conditions: between 200-500 um, after 2 weeks, vs control animals, p-value less than 0.04
Procedure: FIGS. 6A-6E. Ambroxol promotes retinal ganglion cell axonal regeneration. FIG. 6A: Ambroxol (Amb-25 mg/ml) or vehicle (Veh) was injected into the eye just before optic nerve crush (ONC-Day 1). Animals received daily […] of ambroxol (25 mg/ml) or vehicle by intraperitoneal (IP) injection from day 1 to day 14. At day 7 ambroxol (25 mg/ml) or vehicle was injected into the eye. Tracer CTB was injected into the eye on day 11 and animals sacrificed on day 14. FIG. 6B: Representative retina whole mount images with Tuj1 antibody staining 2 weeks post injury and (FIG. 6C) histogram depicting quantification of retinal ganglion cell (RGCs) survival measured by Tuj1 antibody staining Scale bar: 25 um FIG. 6D: Representative confocal images of optic nerve sections from WT animal treated with vehicle (n=10) and WT animal treated with ambroxol (25 mg/ml, n=13). Axons are labeled with CTB. Scale bar: 100 um. Measurements were made blinded to treatment. FIG. 6F: Quantification of number of axons in FIG. 6D as function of distance from crush site. T-test ** p<0.001 * p<0.05.
Ambroxol was tested for the ability to enhance CNS regeneration in vivo after injury. The optic nerve regeneration effect in mice after crush injury was evaluated after treating with and without ambroxol. […] In summary, a FDA approved drug—ambroxol accelerates and improves neural repair in the CNS. […]

[2] = system: genes from the M77 network in DRG neurons; assay: qPCR of critical PPI network genes in DRG neurons treated with ambroxol; type: cell-based; conditions: DRG neurons treated with 60 mM ambroxol (4 days), P-value<0.05, includes ATF3, FOS, JUN, SMAD1, SP1
Description: (§1) FIGS. 5A-5F. Targeting candidate RAG regulatory network using small-molecules. Gene expression signatures after PNS injury were used to query drug-related expression profiles in the Connectivity Map. Using a pattern-matching algorithm, we selected three drugs (ambroxol, disulfiram and lasalocid) based on enrichment and specificity scores. FIG. 5A: Protein-protein interaction (edges) network of co-expressed and differentially expressed genes (nodes) after PNS injury depicting up-regulation and down-regulation after SN lesion; up-regulation and down-regulation after ambroxol treatment (from Connectivity Map). FIG. 5B: Histogram depicting differences in DRG neurite outgrowth after treatment with drugs. […] FIG. 5C: Histogram depicting differential expression of mRNA for critical genes in PPI network validated by qPCR of DRG neurons treated with […] ambroxol (4 days). Legend (FIG. 5C, top to bottom): ATF3, CASP3, EGR1, FOS, JAK2, JUN, KLF4, MYC, PLAUR, RELA, SMAD1, SP1, STAT1 and STAT3: FIGS. 5D-5F: Ambroxol concentration response. […] FIG. 5E: Photomicrographs of DRG neurons in presence of vehicle (control) or 40 μM ambroxol, immunostained for βIII-tubulin. Images acquired using ImagExpressmicro. Scale bar, 50 μm. FIG. 5F: Histogram depicting concentration-response for neurite outgrowth per neuron vs. ambroxol concentration, mean±SEM for three independent experiments. […]

[3] = system: optic nerve / retinal ganglion cell axons; assay: optic nerve crush in PTEN knockout mice treated with ambroxol; type: in vivo, mouse; conditions: at 2500 um, after 2 weeks, vs control animals, p-value 0.02
Procedure: FIGS. 15A-15E. Ambroxol promotes retinal ganglion cell axonal regeneration in PTEN knockout mice. Ambroxol (Amb-25 mg/ml) or vehicle (Veh) was injected into the eye just before optic nerve crush. Animals received daily 300 mg/kg of ambroxol or vehicle by intraperitoneal (IP) injection for the first five days after the crush and then they received 150 mg/kg until day 14. At day 7 ambroxol (25 mg/ml) or vehicle was injected into the eye. Tracer CTB was injected into the eye on day 11 and animals sacrificed on day 14. FIG. 15A: Representative confocal images of optic nerve sections from PTEN^−/− animal treated with vehicle (n=4) and PTEN^−/− animal treated with ambroxol (n=4). Axons are labeled with CTB. Scale bar: 100 um. Measurements were made blinded to treatment. FIG. 15B: Quantification of number of axons in […]. T-test ** p<0.01 * p<0.05. FIG. 15C: Representative retina whole mount images with Tuj1 and P-S6 antibody staining 2 weeks post injury and FIGS. 15D-15E: Quantification of retinal ganglion cell (RGCs) survival measured by Tuj1 and P-S6 antibody staining Scale bar: 25 um.
Without wishing to be bound by any theory, since ambroxol recapitulates many of the core expression changes in the M280, we reasoned that it would promote CNS regeneration. […]

SOCS3 [4] = target: T1, SOCS3 (Homo sapiens, UniProt O14543); assay: Western blot of phosphorylated STAT3 (SOCS3 inhibition), human 293 cells; type: cell-based; conditions: increasing concentration
T1 construct: Western blot analysis of cultured human (293) cells; endogenous in cells; host or cells: human 293 cells
T1 sequence (O14543 1-225): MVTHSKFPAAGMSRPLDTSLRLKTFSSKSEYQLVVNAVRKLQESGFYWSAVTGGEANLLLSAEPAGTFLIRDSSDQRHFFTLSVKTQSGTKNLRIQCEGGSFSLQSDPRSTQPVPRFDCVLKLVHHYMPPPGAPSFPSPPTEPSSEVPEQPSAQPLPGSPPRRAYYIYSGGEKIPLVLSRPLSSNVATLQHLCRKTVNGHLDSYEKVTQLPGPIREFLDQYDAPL
Procedure: (§2) Likewise, the inhibition of SOCS3 was tested following the phosphorylated form of STAT3.

SOCS3 [5] = target: T2, SOCS3 (Mus musculus, UniProt O35718); assay: Western blot of phosphorylated STAT3 (SOCS3 inhibition), mouse N2A cells; type: cell-based; conditions: increasing concentration
T2 construct: Western blot analysis of cultured mouse (N2A) cells; endogenous in cells; host or cells: mouse N2A cells
T2 sequence (O35718 1-225): T1 sequence (O14543 1-225) with A133T, P137S, S138L, S152P, P155A, P160T, R162K
Procedure: as §2

SOCS3 [6] = target: T3, SOCS3 (Rattus norvegicus, UniProt O88583); assay: Western blot of phosphorylated STAT3 (SOCS3 inhibition), rat PC12 cells; type: cell-based; conditions: increasing concentration
T3 construct: Western blot analysis of cultured rat (PC12) cells; endogenous in cells; host or cells: rat PC12 cells
T3 sequence (O88583 1-225): T1 sequence (O14543 1-225) with K85E, P137S, S138L, S145F, P148Q, S152P, P155A, S159G, P160T, R162K
Procedure: as §2

[7] = system: regeneration-associated marker genes; assay: q-RT-PCR of regeneration-associated marker genes after treatment with candidate drugs; type: cell-based, mouse; conditions: N2A cell lines treated 48 hours, Gapdh internal control, FIG. 10
Procedure: FIG. 10. Quantitative real-time RT-PCR after treatment of candidate drugs. N2A cell lines were treated with the corresponding drugs for 48 hours and the expression levels of the marker genes was measured by q-RT-PCR, using Gapdh as internal control. Nodes represents the genes tested, the edges represent the direction of regulation (i.e., up-regulation, downregulation) and the edge size represents the extent of fold change.
The gene expression signatures were used to identify FDA approved drugs (Lamb 2007) that may modulate the signaling pathways and gene expression necessary for regeneration. […] Based on the results obtained from the pattern matching algorithm present within the Connectivity Map database, the top three matching expression patterns were chosen based on the connectivity and specificity score, which represented the drugs (ambroxol, lasalocid, and disulfiram). The identified compounds were tested for their effect on gene expression levels of regeneration-associated marker genes and to examine the effect on neurite outgrowth in DRG neurons. […] Since the original pattern was derived from non-neuronal cell lines (30), we tested if ambroxol can change the gene-expression levels of these markers in DRG neurons. […] But, it had no previous relationship to regeneration.

DRG neurons = assay: neurite outgrowth in DRG neurons after treatment with drugs; type: cell-based; conditions: vs control; p<0.05, t-test; FIG. 5B
Description: as §1

PTEN [8] = target: T4, PTEN (Rattus norvegicus, UniProt O54857); assay: Western blot of phosphorylated AKT (PTEN inhibition), rat PC12 cells; type: cell-based; conditions: increasing concentrations, pAKT (Ser473)
T4 construct: Western blot analysis of cultured human (293), mouse (N2A) and rat (PC12) cells; endogenous in cells; host or cells: rat PC12 cells
T4 sequence (O54857 whole entry): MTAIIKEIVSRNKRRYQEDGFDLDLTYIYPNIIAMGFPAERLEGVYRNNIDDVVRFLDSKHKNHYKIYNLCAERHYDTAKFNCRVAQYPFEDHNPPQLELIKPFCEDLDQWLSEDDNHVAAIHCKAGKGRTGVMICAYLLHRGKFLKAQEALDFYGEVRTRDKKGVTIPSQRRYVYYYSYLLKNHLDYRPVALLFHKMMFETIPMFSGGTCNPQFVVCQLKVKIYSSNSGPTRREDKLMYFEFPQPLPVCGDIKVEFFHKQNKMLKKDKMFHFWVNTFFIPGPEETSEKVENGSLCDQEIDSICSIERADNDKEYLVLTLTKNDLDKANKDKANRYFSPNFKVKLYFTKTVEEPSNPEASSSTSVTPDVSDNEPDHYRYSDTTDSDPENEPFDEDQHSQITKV
Procedure: (§3) FIGS. 13A-13D. Western blot analysis of cultured human (293) (FIG. 13A), mouse (N2A) (FIG. 13B) and rat (PC12) (FIG. 13C) cells treated with Luteolin (P2) and Quercetin (P6). FIG. 13D: Protein levels of PTEN, AKT, pAKT (Ser473) and beta-Tubulin were measured.
(§4) The inhibition of PTEN was tested following the phosphorylated form of AKT.

PTEN [9] = target: T5, PTEN (Homo sapiens, UniProt P60484); assay: Western blot of phosphorylated AKT (PTEN inhibition), human 293 cells; type: cell-based; conditions: increasing concentrations, pAKT (Ser473)
T5 construct: Western blot analysis of cultured human (293), mouse (N2A) and rat (PC12) cells; endogenous in cells; host or cells: human 293 cells
T5 sequence (P60484 whole entry): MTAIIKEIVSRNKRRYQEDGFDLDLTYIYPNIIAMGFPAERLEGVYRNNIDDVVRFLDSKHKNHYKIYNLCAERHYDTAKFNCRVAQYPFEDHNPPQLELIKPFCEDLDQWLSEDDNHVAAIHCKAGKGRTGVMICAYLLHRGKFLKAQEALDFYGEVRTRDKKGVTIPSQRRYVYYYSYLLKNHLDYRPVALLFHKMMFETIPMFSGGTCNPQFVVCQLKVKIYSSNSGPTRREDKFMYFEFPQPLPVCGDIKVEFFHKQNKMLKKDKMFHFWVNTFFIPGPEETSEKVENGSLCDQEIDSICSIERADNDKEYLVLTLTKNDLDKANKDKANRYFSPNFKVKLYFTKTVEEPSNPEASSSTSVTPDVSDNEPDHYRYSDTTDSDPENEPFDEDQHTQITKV
Procedure: as §3, §4

PTEN [10] = target: T6, PTEN (Mus musculus, UniProt O08586); assay: Western blot of phosphorylated AKT (PTEN inhibition), mouse N2A cells; type: cell-based; conditions: increasing concentrations, pAKT (Ser473)
T6 construct: Western blot analysis of cultured human (293), mouse (N2A) and rat (PC12) cells; endogenous in cells; host or cells: mouse N2A cells
T6 sequence (O08586 whole entry): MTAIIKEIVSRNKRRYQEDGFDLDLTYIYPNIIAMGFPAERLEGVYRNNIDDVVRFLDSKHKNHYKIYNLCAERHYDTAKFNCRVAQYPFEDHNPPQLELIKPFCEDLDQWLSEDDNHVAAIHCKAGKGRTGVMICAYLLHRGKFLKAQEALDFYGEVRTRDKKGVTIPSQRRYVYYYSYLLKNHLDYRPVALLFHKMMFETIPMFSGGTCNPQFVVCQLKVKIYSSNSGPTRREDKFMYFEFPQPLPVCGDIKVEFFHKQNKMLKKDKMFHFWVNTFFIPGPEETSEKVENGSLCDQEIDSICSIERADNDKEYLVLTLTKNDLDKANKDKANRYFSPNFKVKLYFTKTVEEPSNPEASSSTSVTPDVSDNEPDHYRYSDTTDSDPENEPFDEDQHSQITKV
Procedure: as §3, §4

SMILES | expression level of phosphorylated form of STAT3 (denoting SOCS3 inhibition) (SOCS3 [4]) | expression level of phosphorylated form of STAT3 (denoting SOCS3 inhibition) (SOCS3 [5]) | expression level of phosphorylated form of STAT3 (denoting SOCS3 inhibition) (SOCS3 [6]) | expression level of phosphorylated form of AKT (denoting PTEN inhibition) (PTEN [8]) | expression level of phosphorylated form of AKT (denoting PTEN inhibition) (PTEN [9]) | expression level of phosphorylated form of AKT (denoting PTEN inhibition) (PTEN [10]) | further results
Nc1c(Br)cc(Br)cc1CNC1CCC(O)CC1 (stereo not drawn) [ambroxol, trans-4-(2-Amino-3,5-dibrombenzylamino)-cyclohexanol] |  |  |  |  |  |  | increase in axon regeneration beyond the site of the lesion [1]: > 1.5 fold; number of genes with significant differential expression among 14 randomly tested genes from the M77 [2]: 8 genes; increase in regeneration beyond the site of the lesion [3]: > 2.9 fold
O=c1c(-c2ccc(O)cc2)coc2cc(O)cc(O)c12 [Genistein, genistein] | increased expression level of phosphorylated form of STAT3 | increased expression level of phosphorylated form of STAT3 | increased expression level of phosphorylated form of STAT3 |  |  |  | 
Cc1ccc(N(CC2=NCCN2)c2cccc(O)c2)cc1 [Phentolamine, phentolamine] | increased expression level of phosphorylated form of STAT3 | increased expression level of phosphorylated form of STAT3 | increased expression level of phosphorylated form of STAT3 |  |  |  | 
CC[C@@H](C(=O)[C@@H](C)[C@@H](O)[C@H](C)CCc1ccc(C)c(O)c1C(=O)O)[C@H]1O[C@](CC)([C@H]2CC[C@](O)(CC)[C@H](C)O2)C[C@@H]1C [lasalocid] |  |  |  |  |  |  | gene-expression levels of marker RAGs [7]: significant changes; DRG neurite outgrowth after treatment with drugs (DRG neurons): only ambroxol showed significant enhancement
O=c1cc(-c2ccc(O)c(O)c2)oc2cc(O)cc(O)c12 [Luteolin, luteolin] |  |  |  | increased expression level of phosphorylated form of AKT | increased expression level of phosphorylated form of AKT | increased expression level of phosphorylated form of AKT | 
O=c1c(O)c(-c2ccc(O)c(O)c2)oc2cc(O)cc(O)c12 [Quercetin, quercetin] |  |  |  | increased expression level of phosphorylated form of AKT | increased expression level of phosphorylated form of AKT | increased expression level of phosphorylated form of AKT | 
